{"source": "paper PMC12494543", "about": "“Identification of ALKBH6 as a nucleotide demethylase with a distinct substrate preference” (The Journal of Biological Chemistry, 2025)", "key": {"ALKBH6 [1]": {"biological_target": "T1, ALKBH6 (Homo sapiens, UniProt Q3KRA9)", "T1 construct": "His-tag; made in house", "T1 sequence (Q3KRA9 whole entry)": "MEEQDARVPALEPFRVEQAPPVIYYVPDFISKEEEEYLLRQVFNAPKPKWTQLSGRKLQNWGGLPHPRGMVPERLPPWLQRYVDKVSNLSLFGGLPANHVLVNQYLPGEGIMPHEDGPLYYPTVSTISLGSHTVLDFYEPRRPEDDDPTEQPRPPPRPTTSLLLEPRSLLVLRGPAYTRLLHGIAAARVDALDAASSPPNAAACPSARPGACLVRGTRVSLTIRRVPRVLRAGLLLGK", "assay": "FDH-coupled formaldehyde release demethylation assay", "assay_type": "biochemical", "settings": "me-dNMPs as substrate", "method": "NMPs including 1meAMP (Jena Bioscience, NU-1029-1,) 7meGMP (Jena Bioscience, NU-1135S), 6me-AMP (Sigma, M2780) were purchased. N-methylated deoxy-NMPs were prepared by methylating chemically synthesized 30-mer oligonucleotide containing either dA, dG, dC, or dT by MMS (5%, v/v) (0.59 M) MMS (Sigma, 129925) and purified as described before ([17]). The oligonucleotides were digested with nuclease P1 (NEB) at 37 °C for 4 h to produce deoxy-NMPs. After heat inactivating the nuclease, dNMPs were purified by HPLC and used for the demethylation reaction. N-methylated NMPs were purified similarly, using RNA as the starting material. For the demethylation reaction, ALKBH6 (1 μM) and me-dNMPs (1 mM) were mixed in the dioxygenase reaction buffer and incubated at 37 °C for 30 min. Formaldehyde release was detected by FDH-coupled DNA repair assay as described before ([32], [33]). Briefly, 1 mM NAD+ and 0.01 U FDH were added to the dioxygenase reaction buffer containing methylated nucleotide and ALKBH6. NADH generated was detected by the characteristic absorption peak (340 nm) using a 96-well multimode reader (Synergy, Biotek Instrument). Formaldehyde production was quantified from the standard curve and the initial velocities were determined using various substrate concentrations. The results were plotted and analyzed using GraphPad Prism."}, "ALKBH6 [2]": {"biological_target": "T1, ALKBH6", "assay": "Uncoupled succinate production (SucCD colorimetric assay)", "assay_type": "biochemical", "settings": "CoCl2 20 μM, no substrate", "method": "The uncoupled succinate production reaction was set up in two steps as described before ([54]). In the initial step, WT ALKBH6 (5–20 μM) was incubated in dioxygenase reaction buffer (20 mM Hepes, pH 8.0, 0.2 mM 2OG, 2 mM ascorbate, 5 μM Fe(NH4)2(SO4)2) for 1 h at 37 °C to form succinate. Then the reaction mixture (50 μl) was mixed with recombinant sucCD (1 μM) in SucCD reaction buffer (2 mM MES, pH 6.5, 5 mM ATP 3.258 mM CoA, 50 mM MgCl2) and further incubated for 30 min at 37 °C. Finally, molybdate solution was added for colorimetric detection and the succinate concentration was detected from the standard curve. For inhibition, CoCl2 (20 μM) was used. The results were plotted and analyzed using GraphPad Prism (www.graphpad.com)."}}, "data": [{"compound": "[Cl][Co][Cl]", "note": "[Co(II), cobalt chloride, reference compound]", "values": [{"measurement": "inhibition of ALKBH6-mediated demethylation", "setting": "ALKBH6 [1]", "value": "completely inhibited"}, {"measurement": "inhibition of uncoupled succinate production", "setting": "ALKBH6 [2]", "value": "inhibited"}]}]}
